{"source": "patent US20260285850A1", "about": "“SUBSTITUTED OXAZOLIDINONES AND IMIDAZOLINONES AS HERBICIDES” (FMC CORPORATION, priority 2023, published 2026)", "type_in_all_cases": "in vivo", "key": {"[1]": {"test_system": "corn (Zea mays)", "test": "Test A preemergence soil spray, visual injury rating 0-100", "conditions": "10 days", "procedure,_shortened": "(§1)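 Preemergence directed soil spray or postemergence spray (2-10 cm, 1-2 leaf); loam/sand mix; compound in non-phytotoxic solvent + surfactant. Greenhouse, 10 d. Visual injury vs untreated, 0 = none, 100 = complete control.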"}, "[2]": {"test_system": "blackgrass (Alopecurus myosuroides)", "test": "Test A preemergence soil spray, visual injury rating 0-100", "conditions": "10 days", "procedure,_shortened": "as §1"}, "[3]": {"test_system": "oat, wild (wild oat, Avena fatua)", "test": "Test A preemergence soil spray, visual injury rating 0-100", "conditions": "10 days", "procedure,_shortened": "as §1"}, "[4]": {"test_system": "kochia (Bassia scoparia)", "test": "Test A preemergence soil spray, visual injury rating 0-100", "conditions": "10 days", "procedure,_shortened": "as §1"}, "[5]": {"test_system": "green foxtail (Setaria viridis)", "test": "Test A preemergence soil spray, visual injury rating 0-100", "conditions": "10 days", "procedure,_shortened": "as §1"}, "[6]": {"test_system": "barnyardgrass (Echinochloa crus-galli)", "test": "Test A preemergence soil spray, visual injury rating 0-100", "conditions": "10 days", "procedure,_shortened": "as §1"}, "[7]": {"test_system": "palmer (palmer amaranth, palmer pigweed, Amaranthus palmeri)", "test": "Test A preemergence soil spray, visual injury rating 0-100", "conditions": "10 days", "procedure,_shortened": "as §1"}, "[8]": {"test_system": "soybean (Glycine max)", "test": "Test A preemergence soil spray, visual injury rating 0-100", "conditions": "10 days", "procedure,_shortened": "as §1"}, "[9]": {"test_system": "ryegrass, Italian (italian ryegrass, Lolium multiflorum)", "test": "Test A preemergence soil spray, visual injury rating 0-100", "conditions": "10 days", "procedure,_shortened": "as §1"}, "[10]": {"test_system": "wheat (Triticum aestivum)", "test": "Test A preemergence soil spray, visual injury rating 0-100", "conditions": "10 days", "procedure,_shortened": "as §1"}, "[11]": {"test_system": "ragweed (common ragweed, Ambrosia artemisiifolia)", "test": "Test A preemergence soil spray, visual injury rating 0-100", "conditions": "10 days", "procedure,_shortened": "as §1"}, "[12]": {"test_system": "barnyardgrass (Echinochloa crusgalli)", "test": "Test B flooded paddy test, visual plant response rating 0-100", "conditions": "250 g ai/ha, Flood, applied to paddy water, evaluated after 13 days", "procedure,_shortened": "(§2)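 Greenhouse, 13 d. Seedlings at 2-leaf stage, pots flooded to 3 cm, compound delivered into floodwater, water level held constant. Evaluated visually relative to controls.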"}, "[13]": {"test_system": "rice (Oryza sativa)", "test": "Test B flooded paddy test, visual plant response rating 0-100", "conditions": "250 g ai/ha, Flood, applied to paddy water, evaluated after 13 days", "procedure,_shortened": "as §2"}, "[14]": {"test_system": "ducksalad (Heteranthera limosa)", "test": "Test B flooded paddy test, visual plant response rating 0-100", "conditions": "250 g ai/ha, Flood, applied to paddy water, evaluated after 13 days", "procedure,_shortened": "as §2"}, "[15]": {"test_system": "sedge, umbrella (small-flower umbrella sedge, Cyperus difformis)", "test": "Test B flooded paddy test, visual plant response rating 0-100", "conditions": "250 g ai/ha, Flood, applied to paddy water, evaluated after 13 days", "procedure,_shortened": "as §2"}, "[16]": {"test_system": "corn (Zea mays)", "test": "Test A postemergence application, visual injury rating 0-100", "procedure,_shortened": "as §1"}, "[17]": {"test_system": "blackgrass (Alopecurus myosuroides)", "test": "Test A postemergence application, visual injury rating 0-100", "procedure,_shortened": "as §1"}, "[18]": {"test_system": "oat, wild (wild oat, Avena fatua)", "test": "Test A postemergence application, visual injury rating 0-100", "procedure,_shortened": "as §1"}, "[19]": {"test_system": "kochia (Bassia scoparia)", "test": "Test A postemergence application, visual injury rating 0-100", "procedure,_shortened": "as §1"}, "[20]": {"test_system": "green foxtail (Setaria viridis)", "test": "Test A postemergence application, visual injury rating 0-100", "procedure,_shortened": "as §1"}, "[21]": {"test_system": "barnyardgrass (Echinochloa crus-galli)", "test": "Test A postemergence application, visual injury rating 0-100", "procedure,_shortened": "as §1"}, "[22]": {"test_system": "palmer (palmer amaranth, palmer pigweed, Amaranthus palmeri)", "test": "Test A postemergence application, visual injury rating 0-100", "procedure,_shortened": "as §1"}, "[23]": {"test_system": "soybean (Glycine max)", "test": "Test A postemergence application, visual injury rating 0-100", "procedure,_shortened": "as §1"}, "[24]": {"test_system": "ryegrass, Italian (italian ryegrass, Lolium multiflorum)", "test": "Test A postemergence application, visual injury rating 0-100", "procedure,_shortened": "as §1"}, "[25]": {"test_system": "galium (catchweed bedstraw, Galium aparine)", "test": "Test A postemergence application, visual injury rating 0-100", "procedure,_shortened": "as §1"}, "[26]": {"test_system": "wheat (Triticum aestivum)", "test": "Test A postemergence application, visual injury rating 0-100", "procedure,_shortened": "as §1"}, "[27]": {"test_system": "ragweed (common ragweed, Ambrosia artemisiifolia)", "test": "Test A postemergence application, visual injury rating 0-100", "procedure,_shortened": "as §1"}, "[28]": {"conditions": "62 g ai/ha, 0 = no effect, 100 = complete control"}, "[29]": {"conditions": "62 g ai/ha, postemergence, 10 days, 0 = no effect, 100 = complete control"}, "[30]": {"conditions": "Postemergence, 16 g ai/ha, greenhouse 10 days, 0 no effect, 100 complete control"}}, "data": [{"smiles": "C=CC1(C(=O)NC2COC(C(=O)OC)C2)CN(c2cc(F)cc(F)c2)C(=O)O1", "note": "(centres unmarked) [Compound 171]", "values": [{"measurement": "Corn plant response rating", "setting": "[1]; 16 g ai/ha, 0 to 100 scale", "value": 0}, {"measurement": "Corn plant response rating (0-100)", "setting": "[1]; [28]", "value": 40}, {"measurement": "Blackgrass plant response rating", "setting": "[2]; 16 g ai/ha, 0 to 100 scale", "value": 20}, {"measurement": "Blackgrass plant response rating (0-100)", "setting": "[2]; [28]", "value": 90}, {"measurement": "Oat, Wild plant response rating", "setting": "[3]; 16 g ai/ha, 0 to 100 scale", "value": 20}, {"measurement": "Oat, Wild plant response rating (0-100)", "setting": "[3]; [28]", "value": 90}, {"measurement": "Kochia plant response rating", "setting": "[4]; 16 g ai/ha, 0 to 100 scale", "value": 30}, {"measurement": "Kochia plant response rating (0-100)", "setting": "[4]; [28]", "value": 40}, {"measurement": "Foxtail, Green plant response rating", "setting": "[5]; 16 g ai/ha, 0 to 100 scale", "value": 0}, {"measurement": "Foxtail, Green plant response rating (0-100)", "setting": "[5]; [28]", "value": 90}, {"measurement": "Barnyardgrass plant response rating", "setting": "[6]; 16 g ai/ha, 0 to 100 scale", "value": 0}, {"measurement": "Barnyardgrass plant response rating (0-100)", "setting": "[6]; [28]", "value": 90}, {"measurement": "Pigweed, Palmer plant response rating", "setting": "[7]; 16 g ai/ha, 0 to 100 scale", "value": 0}, {"measurement": "Pigweed, Palmer plant response rating (0-100)", "setting": "[7]; [28]", "value": 70}, {"measurement": "Soybean plant response rating", "setting": "[8]; 16 g ai/ha, 0 to 100 scale", "value": 0}, {"measurement": "Soybean plant response rating (0-100)", "setting": "[8]; [28]", "value": 20}, {"measurement": "Ryegrass, Italian plant response rating", "setting": "[9]; 16 g ai/ha, 0 to 100 scale", "value": 20}, {"measurement": "Ryegrass, Italian plant response rating (0-100)", "setting": "[9]; [28]", "value": 90}, {"measurement": "Wheat plant response rating", "setting": "[10]; 16 g ai/ha, 0 to 100 scale", "value": 60}, {"measurement": "Wheat plant response rating (0-100)", "setting": "[10]; [28]", "value": 90}, {"measurement": "Ragweed plant response rating", "setting": "[11]; 16 g ai/ha, 0 to 100 scale", "value": 0}, {"measurement": "Ragweed plant response rating (0-100)", "setting": "[11]; [28]", "value": 0}, {"measurement": "Plant response rating, Barnyardgrass (0 to 100 scale, 0 is no effect and 100 is complete control)", "setting": "[12]", "value": 60}, {"measurement": "Plant response rating, Rice (0 to 100 scale, 0 is no effect and 100 is complete control)", "setting": "[13]", "value": 45}, {"measurement": "Plant response rating, Ducksalad (0 to 100 scale, 0 is no effect and 100 is complete control)", "setting": "[14]", "value": 50}, {"measurement": "Plant response rating, Sedge, Umbrella (0 to 100 scale, 0 is no effect and 100 is complete control)", "setting": "[15]", "value": 45}, {"measurement": "Corn plant response rating (0-100)", "setting": "[16]; [29]", "value": 90}, {"measurement": "Corn plant response rating (0 to 100 scale)", "setting": "[16]; [30]", "value": 80}, {"measurement": "Blackgrass plant response rating (0-100)", "setting": "[17]; [29]", "value": 70}, {"measurement": "Blackgrass plant response rating (0 to 100 scale)", "setting": "[17]; [30]", "value": 70}, {"measurement": "Oat, Wild plant response rating (0-100)", "setting": "[18]; [29]", "value": 90}, {"measurement": "Oat, Wild plant response rating (0 to 100 scale)", "setting": "[18]; [30]", "value": 90}, {"measurement": "Kochia plant response rating (0-100)", "setting": "[19]; [29]", "value": 80}, {"measurement": "Kochia plant response rating (0 to 100 scale)", "setting": "[19]; [30]", "value": 60}, {"measurement": "Foxtail, Green plant response rating (0-100)", "setting": "[20]; [29]", "value": 90}, {"measurement": "Foxtail, Green plant response rating (0 to 100 scale)", "setting": "[20]; [30]", "value": 80}, {"measurement": "Barnyardgrass plant response rating (0-100)", "setting": "[21]; [29]", "value": 80}, {"measurement": "Barnyardgrass plant response rating (0 to 100 scale)", "setting": "[21]; [30]", "value": 70}, {"measurement": "Pigweed, Palmer plant response rating (0-100)", "setting": "[22]; [29]", "value": 80}, {"measurement": "Pigweed, Palmer plant response rating (0 to 100 scale)", "setting": "[22]; [30]", "value": 60}, {"measurement": "Soybean plant response rating (0-100)", "setting": "[23]; [29]", "value": 80}, {"measurement": "Soybean plant response rating (0 to 100 scale)", "setting": "[23]; [30]", "value": 70}, {"measurement": "Ryegrass, Italian plant response rating (0-100)", "setting": "[24]; [29]", "value": 70}, {"measurement": "Ryegrass, Italian plant response rating (0 to 100 scale)", "setting": "[24]; [30]", "value": 20}, {"measurement": "Galium plant response rating (0-100)", "setting": "[25]; [29]", "value": 80}, {"measurement": "Galium plant response rating (0 to 100 scale)", "setting": "[25]; [30]", "value": 80}, {"measurement": "Wheat plant response rating (0-100)", "setting": "[26]; [29]", "value": 90}, {"measurement": "Wheat plant response rating (0 to 100 scale)", "setting": "[26]; [30]", "value": 80}, {"measurement": "Ragweed plant response rating (0-100)", "setting": "[27]; [29]", "value": 30}, {"measurement": "Ragweed plant response rating (0 to 100 scale)", "setting": "[27]; [30]", "value": 30}]}]}
